Test results: ChEMBL document CHEMBL1201862, “PubChem BioAssay data set” (2004)
The source made the active and inactive calls.

Experiments:
[1] = molecular target: T1, Polyadenylate-binding protein 1 (Homo sapiens, UniProt P11940); assay: PABP1 MLLE–PAM2 binding inhibitor potency, dose response, biochemical, fluorescence polarization, FITC-PAM2 peptide (AID 602259); format: functional; details: read-out: IC50_Mean
[2] = molecular target: T1, Polyadenylate-binding protein 1; assay: PABP1 MLLE–PAM2 interaction inhibitors, dose response, miRNA deadenylation inhibitor project, biochemical, fluorescence polarization, Cy5-PAM2 peptide, secondary (AID 602260); format: functional; details: read-out: IC50_Mean
[3] = molecular target: T2, Calpain-2 catalytic subunit (Sus scrofa, UniProt P43367); assay: pig calpain II inhibitor potency, dose response, biochemical, fluorogenic peptide substrate (AID 1420); format: functional
T2 sequence (P43367 whole entry): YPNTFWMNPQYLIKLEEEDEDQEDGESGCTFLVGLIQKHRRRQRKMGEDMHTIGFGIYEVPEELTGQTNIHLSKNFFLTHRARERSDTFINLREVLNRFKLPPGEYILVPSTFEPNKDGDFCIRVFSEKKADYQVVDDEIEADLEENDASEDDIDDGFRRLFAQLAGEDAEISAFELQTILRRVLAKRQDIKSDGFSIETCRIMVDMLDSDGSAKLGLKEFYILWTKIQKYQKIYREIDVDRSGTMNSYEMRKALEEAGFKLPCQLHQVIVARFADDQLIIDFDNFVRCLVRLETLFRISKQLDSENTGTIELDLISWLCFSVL

H9c2 = assay: cells; format: functional, cell-based; details: Rattus norvegicus, H9c2, Myocardium
INS1 = assay: beta cell apoptosis inhibitors, cytokine rescue, dose response, luminescence, retest (AID 449756); format: functional, cell-based; details: Rattus norvegicus;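 also: cell death triggered by IL-1 beta plus TNF-alpha plus IFN-gamma mixture; protective hits raise ATP signal compared with cytokine alone wells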
[4] = inhibitors of HIV Env-driven cell fusion, dose response, cherry-pick (AID 652057); format: functional, cell-based
[5] = inhibitors of clade B AD8 Env fusion, dose response, cell-based, cherry-pick (AID 652062); format: functional;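 also: luciferase signal from cell-cell fusion driven by HIV-1 clade B AD8 Env; potency is for inhibitors of fusion seen as a drop in luminescence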
[6] = off-target signal loss in HeLa-CEM21 co-culture – HeLa F-luc CTL cells, cherry-picked, counter-screen for HIV-1 Env fusion inhibitor project, dose response (AID 652040); format: functional, cell-based;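 also: potency for signal decrease marking cytotoxic or nonspecific inhibition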
[7] = ZM109 Env clade C HIV-1 fusion inhibitors, dose response, HeLa effector, CEM target cells, luciferase, cherry-pick (AID 652058); format: functional, cell-based
Cytochrome P450 3A4 = Cytochrome P450 3A4 (Homo sapiens, UniProt P08684);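 also: CYP3A4 tested as one member of a cytochrome P450 panel screen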
Cytochrome P450 2C19 = Cytochrome P450 2C19 (Homo sapiens, UniProt P33261); assay: Cytochrome panel assay with activity outcomes. Panel member name: p450-cyp2c19 Compounds with AC50 equal or less than 10 uM are considered active; format: functional; details: read-out: AC50
Cytochrome P450 2C19, sequence (P33261 whole entry): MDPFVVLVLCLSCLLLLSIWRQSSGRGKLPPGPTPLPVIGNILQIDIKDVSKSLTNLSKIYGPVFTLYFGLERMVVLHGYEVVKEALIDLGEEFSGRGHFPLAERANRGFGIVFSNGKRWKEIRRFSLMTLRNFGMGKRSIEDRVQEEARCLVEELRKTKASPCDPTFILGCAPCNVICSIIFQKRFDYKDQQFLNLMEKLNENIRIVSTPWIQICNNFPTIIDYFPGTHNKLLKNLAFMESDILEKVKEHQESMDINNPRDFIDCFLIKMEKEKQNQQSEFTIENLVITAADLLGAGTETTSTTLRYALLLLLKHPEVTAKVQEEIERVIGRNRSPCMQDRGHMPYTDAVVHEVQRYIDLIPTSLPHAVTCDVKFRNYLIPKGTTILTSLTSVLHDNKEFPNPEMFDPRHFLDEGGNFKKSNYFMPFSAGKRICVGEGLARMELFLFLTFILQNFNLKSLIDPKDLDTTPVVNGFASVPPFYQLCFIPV

T1 sequence (P11940 whole entry): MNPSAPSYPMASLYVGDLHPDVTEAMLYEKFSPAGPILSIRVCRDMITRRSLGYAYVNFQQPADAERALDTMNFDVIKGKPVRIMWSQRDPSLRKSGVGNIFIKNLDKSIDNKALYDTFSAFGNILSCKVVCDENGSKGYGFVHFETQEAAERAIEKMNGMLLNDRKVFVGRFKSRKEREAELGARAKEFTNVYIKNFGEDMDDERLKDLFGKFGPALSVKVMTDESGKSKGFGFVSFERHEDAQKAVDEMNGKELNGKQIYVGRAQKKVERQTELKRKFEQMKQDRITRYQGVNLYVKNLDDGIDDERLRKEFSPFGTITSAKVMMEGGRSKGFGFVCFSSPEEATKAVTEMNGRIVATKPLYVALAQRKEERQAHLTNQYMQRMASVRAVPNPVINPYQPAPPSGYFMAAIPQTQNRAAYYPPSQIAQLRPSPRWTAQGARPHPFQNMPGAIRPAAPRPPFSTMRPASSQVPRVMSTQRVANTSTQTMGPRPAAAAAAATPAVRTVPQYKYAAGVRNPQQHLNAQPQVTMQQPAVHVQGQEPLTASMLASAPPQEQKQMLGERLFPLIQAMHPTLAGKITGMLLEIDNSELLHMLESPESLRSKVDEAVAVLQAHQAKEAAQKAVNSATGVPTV
Cytochrome P450 3A4, sequence (P08684 whole entry): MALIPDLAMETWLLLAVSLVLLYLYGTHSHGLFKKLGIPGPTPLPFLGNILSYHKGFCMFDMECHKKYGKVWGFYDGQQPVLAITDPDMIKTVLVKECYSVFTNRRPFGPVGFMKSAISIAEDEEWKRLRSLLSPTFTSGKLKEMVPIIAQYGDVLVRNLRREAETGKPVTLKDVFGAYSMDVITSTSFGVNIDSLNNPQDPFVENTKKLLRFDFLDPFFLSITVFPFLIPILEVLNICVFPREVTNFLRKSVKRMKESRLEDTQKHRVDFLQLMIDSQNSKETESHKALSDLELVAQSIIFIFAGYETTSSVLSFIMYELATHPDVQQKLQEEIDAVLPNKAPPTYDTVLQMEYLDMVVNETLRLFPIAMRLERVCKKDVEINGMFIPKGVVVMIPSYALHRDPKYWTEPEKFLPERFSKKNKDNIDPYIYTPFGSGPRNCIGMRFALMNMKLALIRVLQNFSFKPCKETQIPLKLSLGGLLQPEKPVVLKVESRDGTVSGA

## O=C(NC(=S)NC1CCSC1=O)c1ccc([N+](=O)[O-])cc1 (stereo not given)
[1]
  IC50: > 66 µM (inactive)
[2]
  IC50: > 66 µM (inactive)

## CCN(CC(=O)Nc1ccc(OC)cc1)C(=O)CSCc1c(C)noc1C
[1]
  IC50: > 66 µM (inactive)
[2]
  IC50: > 66 µM (inactive)

## CCOc1ncccc1C(=O)Nc1nnc(C)s1
[3]
  IC50: > 50 µM (not active)

## O=C(c1cc([N+](=O)[O-])ccc1N1CCOCC1)N1CCCCC1
[3]
  IC50: > 50 µM (not active)

## O=c1[nH]nc(Sc2ccccc2)c(=S)[nH]1
[1]
  IC50: > 66 µM (inactive)
[2]
  IC50: > 66 µM (inactive)

## CCCCCCSc1ccc([C@H]2N[C@@](Cc3ccccc3)(C(=O)OC)[C@H]3C(=O)N(C)C(=O)[C@@H]23)cc1
H9c2
  IC50: > 79 µM (inactive)
INS1
  AC50: 14.1 µM (active)

## CCC(C)NC(=O)[C@H]1N2C(=O)c3c(ccc(OC)c3OC)C2SC1(C)C (stereo not given in full)
[1]
  IC50: > 66 µM (inactive)
[2]
  IC50: > 66 µM (inactive)

## CC1(C)CC2CC(C)(CN2S(=O)(=O)c2cccc(C(=O)OCC(=O)NC(N)=O)c2)C1 (stereo not given)
[4]
  AC50: 6.32 µM (active)
[5]
  AC50: 13.8 µM (active)
[6]
  AC50: 6.33 µM (active)
[7]
  AC50: 6.73 µM (active)

## COc1cc2c(cc1[N+](=O)[O-])n(C(C)C)c(=O)n2C(C)C
[3]
  IC50: > 50 µM (not active)

## CC(C)(C)N1C(=O)[C@H]2[C@@H](c3ccc(Br)cc3)N3C(=O)N(c4ccccc4)C(=O)[C@@]3(C)[C@H]2C1=O
[4]
  AC50: 1.13 µM (active)
[5]
  AC50: 1.83 µM (active)
[6]
  AC50: 1.18 µM (active)
[7]
  AC50: 1.08 µM (active)

## Cc1cccc(NC(=O)NC(=S)NC(=O)c2ccccc2)c1
[1]
  IC50: > 66 µM (inactive)
[2]
  IC50: > 66 µM (inactive)

## Oc1nc(S)nc2c1CN(Cc1ccc(F)cc1)CC2
[1]
  IC50: > 66 µM (inactive)
[2]
  IC50: > 66 µM (inactive)

## Cc1nc2sccn2c1-c1csc(NCc2ccccc2)n1
[4]
  AC50: 15.4 µM (active)
[5]
  AC50: 10.7 µM (active)
[6]
  AC50: 24 µM (active)
[7]
  AC50: 10.1 µM (active)

## CC1(C(=O)NCc2ccc(Cl)c(Cl)c2)Oc2ccccc2NC1=O (stereo not given)
[3]
  IC50: 5.76 µM (not active)

## COc1ccc(NC(=O)CSc2nnc(CCC(=O)O)c(=O)n2N)cc1
[1]
  IC50: > 66 µM (inactive)
[2]
  IC50: > 66 µM (inactive)

## O=C(NCc1cccnc1)c1cnc2cc3c(cc2c1O)OCCO3
[5]
  AC50: 1.22 µM (active)
[6]
  AC50: < 0.26 µM (active)

## COc1ccccc1NC(=O)C12CC3CC(C1)CC(c1ccc(C)cc1)(C3)C2
[3]
  IC50: 3.42 µM (not active)

## CCC1(c2ccccc2)NC(=O)N(CC(=O)Nc2cc(S(=O)(=O)N3CCCCC3)ccc2OC(C)C)C1=O (stereo not given)
[4]
  AC50: 1.8 µM (active)
[5]
  AC50: 14.7 µM (active)
[6]
  AC50: 5.57 µM (active)
[7]
  AC50: 3.02 µM (active)

## CCOC(=O)C1C(=O)NC(SCC(=O)OC)=C(C#N)C1c1ccccc1OCC (stereo not given)
H9c2
  IC50: 67.2 µM (inactive)

## Cc1cc(Cl)ccc1OCCCC(=O)Nc1cc(S(=O)(=O)N2CCOCC2)ccc1N1CCOCC1
[4]
  AC50: 2.05 µM (active)
[5]
  AC50: 7.34 µM (active)
[6]
  AC50: 4.73 µM (active)
[7]
  AC50: 5.3 µM (active)

## O=C(Nc1cccc(C(F)(F)F)c1)c1cccn(Cc2ccc3c(c2)OC(F)(F)O3)c1=O
Cytochrome P450 3A4
  AC50: 25.1 µM (inconclusive)
[3]
  IC50: > 50 µM (not active)
Cytochrome P450 2C19
  AC50: 2.24 µM (inconclusive)

## CC(=O)c1cccc(S(=O)(=O)NC2CCSc3ccccc32)c1 (stereo not given)
[1]
  IC50: > 66 µM (inactive)
[2]
  IC50: > 66 µM (inactive)

## Cn1nc(C(F)(F)F)c2cc(NC(=O)OCc3ccc(F)cc3)sc21
[3]
  IC50: 6.72 µM (active)
